From ChEMBL document CHEMBL5649168, “Discovery of a selective catalytic p300/CBP inhibitor that targets lineage-specific tumours” (Nature, 2017)
Active and inactive are the calls of the source. No cut-off for these calls is given here.

Columns and labels:
[1] = target: cGMP-dependent protein kinase 1 (Homo sapiens, UniProt Q13976); assay: Inhibition of PKG1alpha (unknown origin)
[2] = target: Serine/threonine-protein kinase PAK 4 (Homo sapiens, UniProt O96013); assay: Inhibition of PAK4KD (unknown origin)
[3] = Cmax in CB17 SCID mouse xenografted with LuCaP-77 CR cell at 200 mg/kg, ip administered for 7 days; format: ADME, organism-based; details: in vivo, time 7 day
[4] = system: Pfeiffer; assay: Antiproliferative activity against human Pfeiffer cells assessed as inhibition of cell viability incubated for 3 to 5 days by Celltiter-Glo luminescent assay; format: functional, cell-based
[5] = target: Serine/threonine-protein kinase 16 (Homo sapiens, UniProt O75716); assay: Inhibition of STK16 (unknown origin)
[6] = system: Karpas-1106P; assay: Antiproliferative activity against human KARPAS-1106P cells assessed as inhibition of cell viability incubated for 3 to 5 days by Celltiter-Glo luminescent assay; format: functional, cell-based
[7] = system: MDA-MB-436; assay: Antiproliferative activity against human MDA-MB-436 cells assessed as inhibition of cell viability incubated for 3 to 5 days by Celltiter-Glo luminescent assay; format: functional, cell-based
[8] = system: CWR22R; assay: Antiproliferative activity against human 22Rv1 cells assessed as inhibition of cell viability incubated for 3 to 5 days by Celltiter-Glo luminescent assay; format: functional, cell-based
[9] = system: SU-DHL-2; assay: Antiproliferative activity against human SUDHL2 cells assessed as inhibition of cell viability incubated for 3 to 5 days by Celltiter-Glo luminescent assay; format: functional, cell-based
[10] = target: Fibroblast growth factor receptor 1 (Homo sapiens, UniProt P11362); assay: Inhibition of FGFR1 (unknown origin)
[11] = target: Serine/threonine-protein kinase PLK3 (Homo sapiens, UniProt Q9H4B4); assay: Inhibition of Plk3 (unknown origin)
[12] = system: MDA-MB-453; assay: Antiproliferative activity against human MDA-MB-453 cells assessed as inhibition of cell viability incubated for 3 to 5 days by Celltiter-Glo luminescent assay; format: functional, cell-based
[13] = system: HT; assay: Antiproliferative activity against human HT cells assessed as inhibition of cell viability incubated for 3 to 5 days by Celltiter-Glo luminescent assay; format: functional, cell-based
[14] = target: Tyrosine-protein kinase SYK (Homo sapiens, UniProt P43405); assay: Inhibition of Syk (unknown origin)
[15] = system: NCI-H596; assay: Antiproliferative activity against human NCI-H596 cells assessed as inhibition of cell viability incubated for 3 to 5 days by Celltiter-Glo luminescent assay; format: functional, cell-based
[16] = Half life in CB17 SCID mouse xenografted with LuCaP-77 CR cell at 200 mg/kg, ip administered for 7 days; format: ADME, organism-based; details: in vivo, time 7 day
[17] = target: CREB-binding protein (Homo sapiens, UniProt Q92793); assay: Inhibition of CBP in human 22Rv1 cells at 3 uM incubated for 24 hrs by Western blotting analysis; format: cell-based
[18] = system: 4T1; assay: Antiproliferative activity against mouse 4T1 cells assessed as inhibition of cell viability incubated for 3 to 5 days by Celltiter-Glo luminescent assay; format: functional, cell-based
[19] = system: SK-MEL-2; assay: Antiproliferative activity against human SK-MEL-2 cells assessed as inhibition of cell viability incubated for 3 to 5 days by Celltiter-Glo luminescent assay; format: functional, cell-based
[20] = target: Tyrosine-protein kinase receptor TYRO3 (Homo sapiens, UniProt Q06418); assay: Inhibition of TYRO3 (unknown origin)
[21] = system: Daudi; assay: Antiproliferative activity against human Daudi cells assessed as inhibition of cell viability incubated for 3 to 5 days by Celltiter-Glo luminescent assay; format: functional, cell-based
[22] = target: Insulin receptor (Homo sapiens, UniProt P06213); assay: Inhibition of InsR (unknown origin)
[23] = target: NT-3 growth factor receptor (Homo sapiens, UniProt Q16288); assay: Inhibition of TrkC (unknown origin)
[24] = system: NCI-H69; assay: Antiproliferative activity against human NCI-H69 cells assessed as inhibition of cell viability incubated for 3 to 5 days by Celltiter-Glo luminescent assay; format: functional, cell-based
[25] = system: LuCaP-77 CR cell; details: Homo sapiens, dose 100.0 mg/kg, time 7.0 day
[26] = system: HCC4006; assay: Antiproliferative activity against human HCC4006 cells assessed as inhibition of cell viability incubated for 3 to 5 days by Celltiter-Glo luminescent assay; format: functional, cell-based
[27] = system: MDA-MB-468; assay: Antiproliferative activity against human MDA-MB-468 cells assessed as inhibition of cell viability incubated for 3 to 5 days by Celltiter-Glo luminescent assay; format: functional, cell-based
[28] = system: CAL-120; assay: Antiproliferative activity against human CAL-120 cells assessed as inhibition of cell viability incubated for 3 to 5 days by Celltiter-Glo luminescent assay; format: functional, cell-based
[29] = target: Serine/threonine-protein kinase pim-2 (Homo sapiens, UniProt Q9P1W9); assay: Inhibition of Pim2 (unknown origin)
[30] = target: Mitogen-activated protein kinase 9 (Homo sapiens, UniProt P45984); assay: Inhibition of JNK2 (unknown origin)
[31] = target: Bromodomain-containing protein 4 (Homo sapiens, UniProt O60885); assay: Inhibition of BRD4 (unknown origin)
[32] = target: Serine/threonine-protein kinase TBK1 (Homo sapiens, UniProt Q9UHD2); assay: Inhibition of TBK1 (unknown origin)
[33] = system: K562; assay: Antiproliferative activity against human K562 cells assessed as inhibition of cell viability incubated for 3 to 5 days by Celltiter-Glo luminescent assay; format: functional, cell-based
[34] = system: EMT6; assay: Antiproliferative activity against mouse EMT6 cells assessed as inhibition of cell viability incubated for 3 to 5 days by Celltiter-Glo luminescent assay; format: functional, cell-based
[35] = target: Mitogen-activated protein kinase kinase kinase kinase 2 (Homo sapiens, UniProt Q12851); assay: Inhibition of MAP4K2 (unknown origin)
[36] = target: Leukocyte tyrosine kinase receptor (Homo sapiens, UniProt P29376); assay: Inhibition of LTK (unknown origin)
[37] = system: SK-MEL-5; assay: Antiproliferative activity against human SK-MEL-5 cells assessed as inhibition of cell viability incubated for 3 to 5 days by Celltiter-Glo luminescent assay; format: functional, cell-based
[38] = system: HCC70; assay: Antiproliferative activity against human HCC70 cells assessed as inhibition of cell viability incubated for 3 to 5 days by Celltiter-Glo luminescent assay; format: functional, cell-based
[39] = system: NCI-H929; assay: Antiproliferative activity against human NCI-H929 cells assessed as inhibition of cell viability incubated for 3 to 5 days by Celltiter-Glo luminescent assay; format: functional, cell-based
[40] = system: Raji; assay: Antiproliferative activity against human Raji cells assessed as inhibition of cell viability incubated for 3 to 5 days by Celltiter-Glo luminescent assay; format: functional, cell-based
[41] = system: KARPAS-422; assay: Antiproliferative activity against human KARPAS-422 cells assessed as inhibition of cell viability incubated for 3 to 5 days by Celltiter-Glo luminescent assay; format: functional, cell-based
[42] = system: NCI-H187; assay: Antiproliferative activity against human NCI-H187 cells assessed as inhibition of cell viability incubated for 3 to 5 days by Celltiter-Glo luminescent assay; format: functional, cell-based
[43] = system: HCC1937; assay: Antiproliferative activity against human HCC1937 cells assessed as inhibition of cell viability incubated for 3 to 5 days by Celltiter-Glo luminescent assay; format: functional, cell-based

Sequence of Insulin receptor (P06213 28-758 limits assumed): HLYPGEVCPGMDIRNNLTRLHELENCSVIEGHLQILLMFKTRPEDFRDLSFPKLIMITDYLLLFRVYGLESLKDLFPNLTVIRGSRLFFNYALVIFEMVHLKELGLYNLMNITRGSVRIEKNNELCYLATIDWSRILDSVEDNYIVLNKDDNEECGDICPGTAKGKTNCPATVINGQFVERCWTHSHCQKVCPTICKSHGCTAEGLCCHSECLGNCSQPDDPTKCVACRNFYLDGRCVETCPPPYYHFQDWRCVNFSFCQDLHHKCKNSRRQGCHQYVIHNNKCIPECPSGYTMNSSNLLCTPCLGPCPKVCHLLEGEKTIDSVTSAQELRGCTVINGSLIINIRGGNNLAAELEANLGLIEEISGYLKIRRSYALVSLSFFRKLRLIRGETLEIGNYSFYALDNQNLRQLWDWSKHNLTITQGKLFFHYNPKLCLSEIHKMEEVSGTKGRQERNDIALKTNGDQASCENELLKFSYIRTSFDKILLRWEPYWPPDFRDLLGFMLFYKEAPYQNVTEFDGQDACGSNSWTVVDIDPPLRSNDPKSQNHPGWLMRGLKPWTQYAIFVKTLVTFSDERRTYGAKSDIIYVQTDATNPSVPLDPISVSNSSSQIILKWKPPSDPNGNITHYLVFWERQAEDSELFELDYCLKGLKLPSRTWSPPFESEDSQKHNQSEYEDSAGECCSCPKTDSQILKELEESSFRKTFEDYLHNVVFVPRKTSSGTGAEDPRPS
Sequence of Insulin receptor (P06213 763-1382 limits assumed): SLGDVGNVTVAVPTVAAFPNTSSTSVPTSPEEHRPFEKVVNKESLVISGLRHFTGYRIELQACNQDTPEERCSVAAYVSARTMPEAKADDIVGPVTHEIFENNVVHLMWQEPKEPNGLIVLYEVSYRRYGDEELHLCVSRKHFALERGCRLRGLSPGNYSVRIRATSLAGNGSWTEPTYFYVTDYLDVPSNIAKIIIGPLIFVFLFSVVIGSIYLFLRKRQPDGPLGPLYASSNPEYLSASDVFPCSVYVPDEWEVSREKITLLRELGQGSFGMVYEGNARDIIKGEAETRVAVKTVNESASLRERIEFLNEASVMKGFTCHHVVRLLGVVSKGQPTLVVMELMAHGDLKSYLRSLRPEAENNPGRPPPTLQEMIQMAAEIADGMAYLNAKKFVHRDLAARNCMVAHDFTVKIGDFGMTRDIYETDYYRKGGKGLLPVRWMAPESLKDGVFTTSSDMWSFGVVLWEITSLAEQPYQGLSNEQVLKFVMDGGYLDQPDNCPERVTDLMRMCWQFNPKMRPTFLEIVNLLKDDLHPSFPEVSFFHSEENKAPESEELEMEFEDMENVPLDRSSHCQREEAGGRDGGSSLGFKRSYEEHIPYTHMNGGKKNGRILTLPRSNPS
Sequence of Serine/threonine-protein kinase TBK1 (Q9UHD2 whole entry): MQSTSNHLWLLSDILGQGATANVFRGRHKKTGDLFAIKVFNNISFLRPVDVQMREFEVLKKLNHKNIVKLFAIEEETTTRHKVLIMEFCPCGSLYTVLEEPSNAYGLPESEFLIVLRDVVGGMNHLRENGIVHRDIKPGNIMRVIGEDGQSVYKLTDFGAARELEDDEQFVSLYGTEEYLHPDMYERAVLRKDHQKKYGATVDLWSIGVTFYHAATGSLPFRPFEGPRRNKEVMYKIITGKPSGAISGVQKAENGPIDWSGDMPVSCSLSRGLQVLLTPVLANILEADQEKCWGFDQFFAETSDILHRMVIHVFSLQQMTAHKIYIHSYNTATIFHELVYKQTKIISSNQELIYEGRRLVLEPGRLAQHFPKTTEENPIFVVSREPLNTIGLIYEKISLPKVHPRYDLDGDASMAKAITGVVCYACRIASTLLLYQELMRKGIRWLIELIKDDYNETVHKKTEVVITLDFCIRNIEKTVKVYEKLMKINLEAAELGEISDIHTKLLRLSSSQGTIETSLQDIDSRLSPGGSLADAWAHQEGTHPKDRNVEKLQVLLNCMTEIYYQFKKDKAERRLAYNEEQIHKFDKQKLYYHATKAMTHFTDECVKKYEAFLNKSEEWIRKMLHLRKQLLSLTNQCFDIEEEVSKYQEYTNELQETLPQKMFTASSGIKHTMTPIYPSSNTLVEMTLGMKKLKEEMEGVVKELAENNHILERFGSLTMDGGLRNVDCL
Sequence of Fibroblast growth factor receptor 1 (P11362 whole entry): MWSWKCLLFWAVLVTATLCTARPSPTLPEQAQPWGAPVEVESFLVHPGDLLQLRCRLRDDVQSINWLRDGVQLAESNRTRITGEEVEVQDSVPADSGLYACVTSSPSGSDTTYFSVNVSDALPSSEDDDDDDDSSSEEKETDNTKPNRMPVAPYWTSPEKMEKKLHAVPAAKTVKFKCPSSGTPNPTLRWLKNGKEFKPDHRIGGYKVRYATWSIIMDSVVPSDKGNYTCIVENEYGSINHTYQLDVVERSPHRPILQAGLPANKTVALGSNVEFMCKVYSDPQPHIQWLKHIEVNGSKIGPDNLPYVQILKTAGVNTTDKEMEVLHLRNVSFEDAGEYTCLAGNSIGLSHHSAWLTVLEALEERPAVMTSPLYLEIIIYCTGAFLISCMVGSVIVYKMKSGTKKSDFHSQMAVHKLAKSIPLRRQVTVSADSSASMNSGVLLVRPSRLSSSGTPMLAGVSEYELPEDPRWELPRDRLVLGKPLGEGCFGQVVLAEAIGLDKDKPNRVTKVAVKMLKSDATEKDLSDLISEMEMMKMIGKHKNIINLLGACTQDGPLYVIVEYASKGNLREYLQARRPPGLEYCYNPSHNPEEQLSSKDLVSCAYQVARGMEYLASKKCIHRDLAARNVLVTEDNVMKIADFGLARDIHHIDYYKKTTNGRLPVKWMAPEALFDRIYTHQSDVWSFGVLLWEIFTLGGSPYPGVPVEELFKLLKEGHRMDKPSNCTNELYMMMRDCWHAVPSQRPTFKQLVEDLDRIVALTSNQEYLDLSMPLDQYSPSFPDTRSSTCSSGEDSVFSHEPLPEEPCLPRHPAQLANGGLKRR
Sequence of Serine/threonine-protein kinase pim-2 (Q9P1W9 whole entry): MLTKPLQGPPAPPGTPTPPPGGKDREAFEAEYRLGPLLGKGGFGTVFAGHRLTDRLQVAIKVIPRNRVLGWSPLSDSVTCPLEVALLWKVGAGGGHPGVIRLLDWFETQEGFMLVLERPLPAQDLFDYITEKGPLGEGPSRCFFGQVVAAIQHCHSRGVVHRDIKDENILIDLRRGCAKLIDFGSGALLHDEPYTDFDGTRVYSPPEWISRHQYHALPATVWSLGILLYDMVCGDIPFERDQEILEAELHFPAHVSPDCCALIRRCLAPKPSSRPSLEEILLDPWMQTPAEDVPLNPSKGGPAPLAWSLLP
Sequence of Leukocyte tyrosine kinase receptor (P29376 whole entry): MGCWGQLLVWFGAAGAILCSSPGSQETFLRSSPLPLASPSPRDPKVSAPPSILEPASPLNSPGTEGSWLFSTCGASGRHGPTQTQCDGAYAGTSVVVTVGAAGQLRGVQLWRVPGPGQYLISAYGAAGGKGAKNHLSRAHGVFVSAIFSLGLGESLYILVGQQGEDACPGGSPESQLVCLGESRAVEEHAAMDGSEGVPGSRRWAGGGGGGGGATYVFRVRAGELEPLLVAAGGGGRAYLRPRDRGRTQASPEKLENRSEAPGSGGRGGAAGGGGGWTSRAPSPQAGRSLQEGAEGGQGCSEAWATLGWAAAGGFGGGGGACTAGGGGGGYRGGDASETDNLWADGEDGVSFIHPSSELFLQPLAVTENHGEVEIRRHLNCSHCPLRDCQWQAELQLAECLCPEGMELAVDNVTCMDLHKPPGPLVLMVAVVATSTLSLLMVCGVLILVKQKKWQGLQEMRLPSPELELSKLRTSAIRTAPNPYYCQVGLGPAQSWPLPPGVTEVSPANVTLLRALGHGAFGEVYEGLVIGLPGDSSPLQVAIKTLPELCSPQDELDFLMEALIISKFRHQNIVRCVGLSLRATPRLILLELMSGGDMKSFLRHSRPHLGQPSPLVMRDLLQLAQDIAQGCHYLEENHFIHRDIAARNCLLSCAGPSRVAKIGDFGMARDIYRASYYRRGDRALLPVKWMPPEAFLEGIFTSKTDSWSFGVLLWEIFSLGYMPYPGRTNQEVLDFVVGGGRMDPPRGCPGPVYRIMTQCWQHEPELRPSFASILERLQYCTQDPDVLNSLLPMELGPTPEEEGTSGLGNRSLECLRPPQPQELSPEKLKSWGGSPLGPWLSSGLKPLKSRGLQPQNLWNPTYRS
Sequence of NT-3 growth factor receptor (Q16288 whole entry): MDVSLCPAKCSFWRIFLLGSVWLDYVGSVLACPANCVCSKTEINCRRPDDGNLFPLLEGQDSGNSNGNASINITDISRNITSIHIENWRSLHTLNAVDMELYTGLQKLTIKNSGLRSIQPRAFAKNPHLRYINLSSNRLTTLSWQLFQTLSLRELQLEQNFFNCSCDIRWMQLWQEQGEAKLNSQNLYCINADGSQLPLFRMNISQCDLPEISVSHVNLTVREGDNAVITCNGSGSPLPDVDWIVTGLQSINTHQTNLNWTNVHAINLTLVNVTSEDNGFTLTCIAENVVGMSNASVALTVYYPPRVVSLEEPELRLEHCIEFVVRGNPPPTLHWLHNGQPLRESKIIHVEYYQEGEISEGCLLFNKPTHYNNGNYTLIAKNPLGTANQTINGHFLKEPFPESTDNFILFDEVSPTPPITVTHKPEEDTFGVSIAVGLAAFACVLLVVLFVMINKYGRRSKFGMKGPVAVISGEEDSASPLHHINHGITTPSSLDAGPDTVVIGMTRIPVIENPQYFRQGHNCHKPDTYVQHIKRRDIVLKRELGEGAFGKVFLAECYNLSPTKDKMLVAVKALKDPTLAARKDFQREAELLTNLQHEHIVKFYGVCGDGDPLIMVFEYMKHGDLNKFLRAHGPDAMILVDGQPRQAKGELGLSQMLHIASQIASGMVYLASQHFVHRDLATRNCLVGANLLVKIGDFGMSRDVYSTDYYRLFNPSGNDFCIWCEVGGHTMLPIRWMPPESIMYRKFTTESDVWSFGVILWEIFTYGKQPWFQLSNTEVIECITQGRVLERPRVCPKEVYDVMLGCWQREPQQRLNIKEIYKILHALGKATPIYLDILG

Question: For CNC(=O)Nc1ccc2c(c1)CC[C@@]21OC(=O)N(CC(=O)N(Cc2ccc(F)cc2)[C@@H](C)C(F)(F)F)C1=O [A-485], which IC50 [1] is on record?
Answer: > 10000 nM

Question: And the IC50 [2]?
Answer: > 10000 nM

Question: What about the Cmax [3] of the same molecule?
Answer: 242 µg/mL

Question: And the EC50 [4]?
Answer: 860 nM

Question: And the IC50 [5]?
Answer: > 10000 nM

Question: What about the EC50 [6] of the same molecule?
Answer: 410 nM

Question: And the EC50 [7]?
Answer: > 10000 nM

Question: What about the EC50 [8] of the same molecule?
Answer: 320 nM

Question: What about the EC50 [9] of the same molecule?
Answer: 950 nM

Question: What about the IC50 [10] of the same molecule?
Answer: > 10000 nM

Question: What about the IC50 [11] of the same molecule?
Answer: 2690 nM

Question: And the EC50 [12]?
Answer: 1870 nM

Question: What about the EC50 [13] of the same molecule?
Answer: > 10000 nM

Question: And the IC50 [14]?
Answer: > 10000 nM

Question: And the EC50 [15]?
Answer: > 10000 nM

Question: What about the half-life [16] of the same molecule?
Answer: 3 h

Question: And the inhibition [17]?
Answer: inactive

Question: What about the EC50 [18] of the same molecule?
Answer: > 10000 nM

Question: What about the EC50 [19] of the same molecule?
Answer: > 10000 nM

Question: And the IC50 [20]?
Answer: > 10000 nM

Question: And the EC50 [21]?
Answer: 430 nM

Question: And the IC50 [22]?
Answer: > 10000 nM

Question: And the IC50 [23]?
Answer: > 10000 nM

Question: And the EC50 [24]?
Answer: > 10000 nM

Question: What about the inhibition [25] of the same molecule?
Answer: Active

Question: What about the EC50 [26] of the same molecule?
Answer: 4640 nM

Question: And the EC50 [27]?
Answer: 380 nM

Question: What about the EC50 [28] of the same molecule?
Answer: > 10000 nM

Question: And the IC50 [29]?
Answer: > 10000 nM

Question: And the IC50 [30]?
Answer: > 10000 nM

Question: What about the IC50 [31] of the same molecule?
Answer: > 10000 nM

Question: And the IC50 [32]?
Answer: > 10000 nM

Question: What about the EC50 [33] of the same molecule?
Answer: 1270 nM

Question: What about the EC50 [34] of the same molecule?
Answer: 500 nM

Question: What about the IC50 [35] of the same molecule?
Answer: > 10000 nM

Question: What about the IC50 [36] of the same molecule?
Answer: > 10000 nM

Question: What about the EC50 [37] of the same molecule?
Answer: 910 nM

Question: And the EC50 [38]?
Answer: > 10000 nM

Question: What about the EC50 [39] of the same molecule?
Answer: 330 nM

Question: What about the EC50 [40] of the same molecule?
Answer: 460 nM

Question: What about the EC50 [41] of the same molecule?
Answer: 250 nM

Question: And the EC50 [42]?
Answer: > 10000 nM

Question: What about the EC50 [43] of the same molecule?
Answer: > 10000 nM
